What was measured:
Format in all cases: cell-based
[1] = system: cancer cells with mtRAS including H358, AsPC-1, DU-145, SW480, and MDA-MB-231; test: Migration assay (scratch assay); conditions: 0.01 µM
Experimental: For migration assay, scratch assay was conducted. Each cells (2.0 × 10^5 cells/well) were seeded in 24-well plates. After cellular attachment, cells were scratched with a SPLScarTM Scratcher (SPL Life Sciences, #201924) and the detached cells were removed by PBS washing twice. Cells were incubated in complete media with 0.01 μM concentrations of each compounds for indicated time. The images were acquired before and after incubation with compounds (40× magnification), and percent of migration were accessed using ImageJ (n = 3).
(§1) Figure 6 The effects of SIJ1795 and SIJ1772 on migration and invasion activities of cancer cells harboring mtRAS. (A) Scratch assay result for cell migration ability determination. Each cell monolayers were scratched and incubated with test compounds at 0.01 μM. After 8 h (MDA-MB-231) or 24 h (DU-145, SW480, HCT-116) or 48 h (AsPC-1) or 72 h (HT-29), cells were stained with crystal violet. Migrated areas were photographed with 40× magnification. Migrated area was determined by ImageJ (n = 3). (B) Boyden chamber assay result for cell invasion ability determination. Indicated compounds of 0.01 μM were treated and incubated for 48 h Invaded cells were stained by crystal violet and photographed. Stained cells were counted by ImageJ (n = 3). Statistical significance was determined using a one-way ANOVA analysis (*p < 0.05, **p < 0.01, ***p < 0.001, ****p < 0.0001).

[2] = system: cancer cells with mtRAS including H358, AsPC-1, DU-145, SW480, and MDA-MB-231; test: Invasion assay (Boyden chamber assay); conditions: 0.01 µM, 48 h
Experimental: For invasion assay, Boyden chamber assay carried out. Transwell insert was precoated with matrigel (Corning, #354248). Cells were seeded in the transwell chamber insert (8 μm pore size) at a density of 5.0 × 10^5 cells/well after serum starvation for overnight. The cells were incubated with 0.01 μM concentration of each compounds of for 48 h at 37°C. The non-invaded cells were eliminated. Crystal violet solution was used to staining the invaded cells. Cells were observed and photographed with 100× magnification. Stained cells were automatically counted and quantified (n = 3).
as §1, with “Indicated compounds of 0.01 μM were treated and incubated for 48 h Invaded cells were stained by crystal violet and photographed.” left out

[3] = system: cancer cells harboring mtRAS; test: Soft agar assay (3D clonogenic assay); conditions: 0.1 μM, 14 days
Experimental: Soft agar assay was conducted for 3D clonogenic assay. On the 0.7% bottom agar, cells were seeded in 6-well plate (5 × 10^3 cells/well) with 0.35% low melting agar (Lonza, #50101) containing the complete media. The cells were treated with indicated compounds for 14 days at 37°C. Colonies were stained by iodonitrotetrazolium chloride (Sigma-Aldrich, I8377) for overnight. The total area of each well was observed without magnification, and the number of colonies of each well were determined using ImageJ software (n = 3).
Figure 8 (A–F) Soft agar assay results for evaluating the effect of SIJ1795 and SIJ1772 on anchorage independent growth abilities on cancer cells harboring mtRAS. Cells were incubated with indicated compounds (0.01 µM or 0.1 µM) for 14 days. After staining with crystal violet, colonies were photographed without magnification. (G–L) Number of colonies (% of control) upon treatment with indicated compounds at 0.1 µM concentration were determined by ImageJ (n = 3, respectively). Statistical significance was calculated by a one-way ANOVA analysis (*p < 0.05, **p < 0.01, ***p < 0.001, ****p < 0.0001).

HCT-116 (KRAS-G13D) = test: Anti-proliferation assay on HCT-116; conditions: Homo sapiens, HCT-116; 72 h treatment; average with SD (n = 3, duplicate)
Experimental: Ba/F3-parental, OCI-AML3, U397 cells were purchased from DSMZ. MDA-MB-231, HCT-116, AsPC-1, H358, HT-29, SW480, and DU-145 cells were obtained from KCLB. MDA-MB-468 cells were obtained from ATCC. All cells were maintained in RPMI with 10% FBS and antibiotics. Cells were grown in a humidified 5% CO2 incubator at 37°C. Ba/F3-parental cells were grown in the presence of 10 ng/ml IL-3. NRAS-G12D or NRAS-G12V transformed Ba/F3 cell lines (Ba/F3-NRAS-G12D, and Ba/F3-NRAS-G12V, respectively) were cultured without IL-3, which were established by the procedure described as previously ([30]).
Approximately 3.0 × 10^3 cells/well were seeded in a 96-well cell culture plate. After stabilization, 1/3 serially diluted compound in DMSO was treated to the cell. […] All GI50 values were obtained in duplicate with three independent assays and averages with standard deviation are presented.

[4] = system: cancer cells harboring mtRAS; test: Colony formation assay (2D clonogenic assay); conditions: 0.1 μM, 14 days
Experimental: Colony formation assay was conducted for 2D clonogenic assay. Approximately 1 × 10^3 cells/well were seeded in 6-well plate. After cellular attachment, indicated concentrations of compounds were treated for 14 days at 37°C. Colonies were stained by crystal violet solution for 30 min. The total area of each well was observed without magnification, and the number of colonies of each well were accessed using ImageJ software (n = 3).
Figure 7 (A–F) Colony formation assay results evaluating the effects of SIJ1795 and SIJ1772 on clonogenic abilities of on cancer cells harboring mtRAS. Cells were incubated with indicated compounds (0.01 µM or 0.1 µM) for 14 days. After staining with crystal violet, colonies were photographed without magnification. (G–L) Number of colonies (% of control) upon treatment with indicated compounds at 0.1 µM concentration were determined by ImageJ (n = 3, respectively). Statistical significance was calculated by using a one-way ANOVA analysis (**p < 0.01, ***p < 0.001, ****p < 0.0001).

[5] = system: Ba/F3-NRAS-G12D and Ba/F3-NRAS-G12V cells; test: Flow cytometry apoptosis analysis (annexin V/PI), Ba/F3 mtRAS cells; conditions: 1 μM, 24 h
Experimental: For apoptosis analysis, cells (1 × 10^6 cells per sample) were incubated with each compounds for 24 h. Cells were subjected to brief ice-cold PBS washing and subjected to staining with Alexafluor488-conjugated annexin V (Thermo Fisher, A13201), and propidium iodide (PI, Thermo Fisher, P3560). Thereafter, apoptotic cells were classified by FACS Accuri™ C6 Plus (BD Biosciences). Debris and unstained cells and were excluded by gating.
Figure 3 (A, B) The effects of SIJ1795 and SIJ1772 on apoptosis induction in Ba/F3 cells transformed with mtRAS (NRAS-G12D and NRAS-G12V). Cells were treated with 0.1 and 1 μM of SIJ1795, SIJ1772, and GNF-7 for 24 h Western blot analysis was conducted to evaluate the cleaved PARP and level. GAPDH was used as a loading control. (C) Apoptotic cell population (annexin V-positive) was determined by flow cytometry analysis (n = 3). Cells were treated with 1 μM of indicated compounds for 24 h. Statistical significance was calculated by a one-way ANOVA analysis (**p < 0.01, ***p < 0.001).

SMILES	reduction in migration capabilities [1]	reduction in invasion capabilities [2]	anchorage independent cell growth [3]	GI50 (HCT-116 (KRAS-G13D)) [µM]	colony formation [4]	apoptotic cells population (annexin V/PI) in Ba/F3-NRAS-G12D and Ba/F3-NRAS-G12V cells [5]
CCN1CCN(c2cccc(Nc3ncc4c(n3)N(C)C(=O)N(c3cc(NC(=O)c5cccc(C(F)(F)F)c5)ccc3C)C4)c2)CC1 [SIJ1795, N-(3-(7-((3-(4-Ethylpiperazin-1-yl)phenyl)amino)-1-methyl-2-oxo-1,4-dihydropyrimido[4,5-d]pyrimidin-3(2H)-yl)-4-methylphenyl)-3-(trifluoromethyl)benzamide]	over 50%	over 50%	suppressed	0.033 ± 0.006	suppressed	increase of apoptotic cells
Cc1ccc(NC(=O)c2cccc(C(F)(F)F)c2)cc1N1Cc2cnc(Nc3cnn(C4CCN(S(C)(=O)=O)CC4)c3)nc2N(C)C1=O [SIJ1772, N-(4-Methyl-3-(1-methyl-7-((1-(1-(methylsulfonyl)piperidin-4-yl)-1H-pyrazol-4-yl)amino)-2-oxo-1,4-dihydropyrimido[4,5-d]pyrimidin-3(2H)-yl)phenyl)-3-(trifluoromethyl)benzamide]	over 50%	over 50%	suppressed	0.038 ± 0.028	suppressed	increase of apoptotic cells
